Measured values from US20030059511A1, “Sweetener compositions and uses thereof” (AJINOMOTO CO., INC., priority 1999, published 2003).
Where a SMILES comes first, the peptide text is derived from it.

Experiments:
[1] = Taste characteristics in a cola drink (9 items, similarity index vs cola drink containing 10% sucrose); format: in vivo, human; conditions: non-carbonated cola drink, PSE 10%, vs cola drink with 10% sucrose; smaller = closer to sucrose; 8 panelists
Procedure: The following experiments were performed in the same way as that of Example 2. Instead of aqueous solution, the cola drink of each of derivatives 1 to 9 having a sweetness level equivalent to that of PSE 10% was prepared, and compared with the cola drink containing 10% sucrose. The evaluation method and so on were same as that of Example 2.
When carbon dioxide is blown in the cola drink, the carbonated cola drink is prepared, however, the taste of the cola drink can be compared more easily in that without carbon dioxide. Thus the sensory evaluation of non-carbonated cola drink was performed.
The composition of the cola drink employed was same as that of Example 1.
(§1) The similarity indexes were calculated as those of aqueous solutions. The smaller the similarity index becomes, the better the taste balances, and the closer the taste is to the taste characteristics (quality) of sucrose. The total taste becomes preferable. The similarity indexes of each derivatives are shown as follows. […]
The following experiments were conducted in the same way as that of Example 15. Instead of aqueous solution, the cola drink of each of derivatives 1 to 9 having a sweetness level equivalent to that of PSE 10% was prepared, and compared with the cola drink containing 10% sucrose. All of the evaluation method and so on were same as those of Example 15.
When carbon dioxide is blown in the cola drink, the carbonated cola drink is prepared, however, the taste of the cola drink can be compared more easily in that without carbon dioxide. Thus the non-carbonated cola drink was organoleptically evaluated.
The composition of the cola drink employed was same as that of Example 14.
as §1, with “(quality)of” for “(quality) of”, “each of the” for “each”

[2] = cited from earlier work; for magnification used for the sweetness intensity of the another sweetener with a high intense sweetness: values used for calculation in Example 5; for sweetness intensity, times that of sucrose by weight: reported in JP-A-8-503206 / JP-B-47-31031; for magnification of sweetness intensity (numerical values in brackets): values used for calculation in Example 17, sucrose = 1
[3] = Equations for calculating sweetness intensity and values calculated from them; format: in vivo, human; conditions: for magnification of sweetness intensity at PSE 0.5%: sweetener for tabletop use
Excerpt: For example, when preparing a solution having a intensity of sweetness equivalent to that of 10% sucrose, wherein 80% of the 10% of intensity of sweetness is from the sweetener component A and the residual 20% is from the sweetener component B, the sweetness ratio is A:B=8:2. When the sweetening magnification relative to sucrose varies depending on the composition and the concentration of the sweetener component is varied even if it is a same sweetener component (in this case, an exponential curve can be prepared and used for calculation), the objective weight of the sweetener component can be calculated. For example, if the equation for converting sweetness intensity (the exponential curve) component A is Y=aX^b, and the equation for converting sweetness intensity (the exponential curve)of component B is Y=cX^d, the weight ratio of the components A and B in the ratio A:B=8:2, can be determined using the following calculation, where Y is a concentration equivalent to that of sucrose (PSE %), and X is the sweetener component concentration (g/100 ml):
(§2) Equations for calculating sweetness intensity in the cola drink (pH 2.8, 20° C.) are as follows, wherein Y denotes the concentration equivalent to that of sucrose (g/100 ml) and X denotes the concentration of the sweetener (g/100 ml), respectively.
With regard to Acesulfame K, the magnification of sweetness intensity was determined according to the following equation for calculating sweetness intensity.
[Y: concentration equivalent to that of sucrose (g/100ml); X: concentration of Acesulfame K (g/100 ml)]
By using the equation for calculating sweetness intensity in the cola drink (refer to Example 4) and the equation for calculating sweetness intensity of Aspartame (refer to the monthly Journal “Food Chemical” August, page 35, 1997), the necessary amounts of those were calculated. In case of Aspartame, the values at 20° C., pH2.8 were used.
The equation for calculating sweetness intensity of derivative 1 in the aqueous solution is as follows.
Where, the calculation of the sweetness was made by using the equation for calculating sweetness intensity of derivative 4 Y=58775X^1.04. When Y=6.3%, X=0.00015 g/100 ml, When Y=5.1%, X=0.00012 g/100 ml.
as §2, with “Examples for equations” for “Equations”, “(pH2.8,” for “(pH 2.8,”, “follows, and another equations can be prepared in the same manner,” for “follows,”

Compound | magnification used for the sweetness intensity of the another sweetener with a high intense sweetness [2] [times] | magnification of sweetness intensity (numerical values in brackets) [2] | further results
CC1=CC(=O)[N-]S(=O)(=O)O1.[K+] [Acesulfame K, reference compound] |  |  | Similarity index [1]: ~2.0
C[C@@H](NC(=O)[C@@H](N)CC(=O)O)C(=O)NC1C(C)(C)SC1(C)C [Alitame] | 2000 |  | 
COC(=O)[C@H](Cc1ccccc1)NC(=O)[C@@H](N)CC(=O)O [Aspartame, reference compound] (H-Asp-Phe-OMe) |  |  | X, concentration of the sweetener when Y=0.5 ([3]; 20° C., pH 2.8): 0.00072 g/100 ml; X, concentration of the sweetener when Y=9 ([3]; 20° C., pH 2.8): 0.04726 g/100 ml; magnification of the sweetness intensity at PSE 5% ([3]; calculated, block ice of Example 12): 130 times; magnification of sweetness intensity at PSE 0.5% ([3]; calculated): 360 times; X, concentration of the sweetener when Y=2 ([3]; cola drink, pH 2.8, 20° C.): 0.0053 g/100 ml; X, concentration of the sweetener when Y=5 ([3]; cola drink, pH 2.8, 20° C.): 0.0202 g/100 ml; X, concentration of the sweetener when Y=8 ([3]; cola drink, pH 2.8, 20° C.): 0.0398 g/100 ml; sweetness intensity, times that of sucrose by weight [2]: 200 times
O=C[C@H](O)[C@@H](O)[C@H](O)CO [D-xylose] |  | 0.4 | 
OC[C@@H](O)[C@@H](O)CO [Erythritol, reference compound] |  | 0.75 | magnification of sweetness intensity at PSE 0.5% ([3]; calculated): 0.75 times
COC(=O)[C@H](Cc1ccccc1)NC(=O)[C@H](CC(=O)O)NCCC(C)(C)C [Neotame] |  |  | sweetness intensity, times that of sucrose by weight [2]: 10000 times
O=C1NS(=O)(=O)c2ccccc21 [Saccharine] | 190 |  | 
O=C1NS(=O)(=O)c2ccccc21.[Na] [Sodium Saccharine] | 190 |  | 
C=C1C[C@@]23CC[C@H]4[C@@](C)(CCC[C@@]4(C)C(=O)O[C@@H]4O[C@H](CO)[C@@H](O)[C@H](O)[C@H]4O)[C@@H]2CC[C@]1(O[C@@H]1O[C@H](CO)[C@@H](O)[C@H](O)[C@H]1O[C@@H]1O[C@H](CO)[C@@H](O)[C@H](O)[C@H]1O)C3 [Stevioside] | 140 |  | 
CC1(C)[C@@H](O[C@H]2O[C@H](C(=O)[O-])[C@@H](O)[C@H](O)[C@H]2O[C@@H]2O[C@H](C(=O)O)[C@@H](O)[C@H](O)[C@H]2O)CC[C@]2(C)[C@H]3C(=O)C=C4[C@@H]5C[C@@](C)(C(=O)[O-])CC[C@]5(C)CC[C@@]4(C)[C@]3(C)CC[C@@H]12.[Na+].[Na+] [disodium glycyrrhizinate] | 100 |  | 
O=C(CO)[C@@H](O)[C@H](O)[C@H](O)CO [fructose] |  | 1.4 | 
OC[C@@H](O)[C@@H](O[C@@H]1O[C@H](CO)[C@H](O)[C@H](O)[C@H]1O)[C@H](O)[C@@H](O)CO [lactitol] |  | 0.35 | 
OC[C@H]1O[C@@H](O[C@H]2[C@H](O)[C@@H](O)C(O)O[C@@H]2CO)[C@H](O)[C@@H](O)[C@H]1O (stereo partly drawn) [lactose] |  | 0.2 | 
OC[C@H]1O[C@H](O[C@H]2[C@H](O)[C@@H](O)[C@H](O)O[C@@H]2CO)[C@H](O)[C@@H](O)[C@@H]1O [malt sugar] |  | 0.3 | 
OC[C@@H](O)[C@@H](O[C@H]1O[C@H](CO)[C@@H](O)[C@H](O)[C@H]1O)[C@H](O)[C@@H](O)CO [maltitol] |  | 0.75 | 
OC[C@@H](O)[C@@H](O)[C@H](O)[C@H](O)CO [mannitol] |  | 0.6 | 
OC[C@H]1O[C@H](OC[C@H]2OC(O)(CO)[C@@H](O)[C@@H]2O)[C@H](O)[C@@H](O)[C@@H]1O (stereo partly drawn) [paratinose] |  | 0.4 | 
O=S(=O)([O-])NC1CCCCC1.[Na+] [sodium cyclamate] | 30 |  | 
OC[C@@H](O)[C@@H](O)[C@H](O)[C@@H](O)CO [sorbitol] |  | 0.75 | 
OC[C@H]1O[C@H](O[C@]2(CCl)O[C@H](CCl)[C@@H](O)[C@@H]2O)[C@H](O)[C@@H](O)[C@H]1Cl [suclarose] | 400 |  | 
OC[C@H]1O[C@H](O[C@H]2O[C@H](CO)[C@@H](O)[C@H](O)[C@H]2O)[C@H](O)[C@@H](O)[C@@H]1O [trehalose] |  | 0.45 | 
OC[C@@H](O)[C@H](O)[C@@H](O)CO [xylitol] |  | 1 | 
Thaumatin | 850 |  | 
isomerized lactose |  | 0.6 | 
paratinit |  | 0.45 | 
